Experiments:
[1] = system: rats; test: Rat circadian rhythm disorder model (momentum and non-REM sleep under LD conditions); assay type: in vivo; conditions: for momentum / non-REM sleep amount: 60 mg/kg intraperitoneal immediately before dark period, vs untreated rats
Experimental: Specifically, rats were acclimatized for one or more weeks under light/dark (LD) conditions consisting of a light period for 12 hours and a dark period for 12 hours. Immediately before the beginning of the dark period, the compound represented by the formula (11) was mixed with a solubilizing agent, and the mixture was intraperitoneally administered to each rat at a dose of 60 mg/kg. […] On the other hand, with regard to a compound in which as halogen group or the like had not been introduced into the thiophene ring of the compound represented by the formula (2) ((4-((6-methoxy-3-pyridinyl)methylene)-2-(2-thienyl)-5(4H)-oxazolone)), the same test as described above was carried out.

[2] = molecular target: T1, human recombinant casein kinase 1δ (substrate human recombinant tau) (Homo sapiens, UniProt P48730); test: Casein kinase 1δ inhibition with tau as substrate (Phos-tag Western blotting); assay type: biochemical; conditions: compound 25 μM to 1 μM, 200 μM ATP, vs reaction solution without compound
T1 construct: purchased Carna Biosciences 03-103
T1 sequence (P48730 whole entry): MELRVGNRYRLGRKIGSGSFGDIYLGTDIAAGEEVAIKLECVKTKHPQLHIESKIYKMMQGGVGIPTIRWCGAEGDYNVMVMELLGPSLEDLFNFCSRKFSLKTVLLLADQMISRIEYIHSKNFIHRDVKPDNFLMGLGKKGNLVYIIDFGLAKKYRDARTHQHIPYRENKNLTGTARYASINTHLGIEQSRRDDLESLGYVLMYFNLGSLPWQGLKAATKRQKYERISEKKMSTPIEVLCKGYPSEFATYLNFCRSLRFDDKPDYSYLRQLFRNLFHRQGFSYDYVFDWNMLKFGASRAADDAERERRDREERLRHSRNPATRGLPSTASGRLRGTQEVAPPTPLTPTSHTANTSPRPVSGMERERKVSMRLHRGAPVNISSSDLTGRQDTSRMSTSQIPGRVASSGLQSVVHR
Experimental: The activity of the present compound to inhibit casein kinase 1δ having tau as a substrate can be examined using human recombinant casein kinase 1δ (Carna Biosciences; Cat No. 03-103) as an enzyme source and also using human recombinant tau (Sigma-Aldrich; Cat No. T0576) as a phosphorylation substrate. The composition (final concentration) applied during the inhibitory activity measurement assay is as follows.
25 μg/ml casein kinase 1δ, 10 μg/ml tau, the present compound (25 μM to 1 μM), 200 μM ATP, 50 mM HEPES (pH7.4), 10 mM MgCl2, 0.01% Brij-35, 200 μM Na3VO4, and 0.25% DMSO
The present compound has previously been allowed to react with the enzyme at room temperature for 15 minutes, and tau is then added to the reaction product. Thereafter, a phosphorylation reaction is carried out for 2 hours. After completion of the phosphorylation reaction, the reaction solution is subjected to Western blotting, so that the phosphorylation of the human recombinant tau transcribed on a PVDF membrane is detected using Phos-tag (NARD Institute, Ltd.; Cat No. BTL-104) according to a chemiluminescence method (ECL Plus; GE Healthcare; Cat No. RPN2132). The PVDF membrane after detection of the phosphorylation reaction is deprobed in accordance with the protocols of the Phos-tag, and thereafter, a total tau protein content can be detected by an antibody reaction. […]

[3] = Solubility of each compound in a DMSO solution; assay type: physicochemical
Source text: In terms of the solubility of each compound in a DMSO solution, a comparison was made among the compound represented by the Formula (2), the compounds represented by the formulae (11) and (14), and a compound in which a halogen atom or the like has not been introduced into the thiophene ring of the compound of the formula (2) (4-((6-methoxy-3-pyridinyl)methylene)-2-(2-thienyl)-5(4H)-oxazolone). The compound represented by the formula (2) and the compounds represented by the formulae (11) and (14) were easily dissolved in final concentrations of 35 mM, 10 mM and 20 mM, respectively, in the DMSO solution. On the other hand, the compound in which a halogen atom or the like has not been introduced into the thiophene ring of the compound of the formula (2) was dissolved in a final concentration of 10 mM in the DMSO solution by being intensively stirred.

[4] = system: various types of kinases (MAPKAPK2, AurA, PKCζ, RSK1, PRAK, Erk1, PKD2, CHK1, ABL, FYN, LYN, CHK2, MET, LCK, SRC, GSK3β, Erk2, PKA, AKT2, INSR, p38α, AKT1 …); test: Inhibitory specificity to various types of kinases, Profiler Pro kit; assay type: biochemical; conditions: final concentration of 10 μM, 1 μM or 0.1 μM; reacted 15 minutes
Experimental: The inhibitory specificity of the casein kinase 1δ to and casein kinase 1ε inhibiting compounds to various types of kinases can be examined using Profiler Pro kit (manufactured by Caliper Life Sciences) in accordance with the method described in an instruction manual included therewith. The compounds represented by the formulae (2), (11) and (14) were each allowed to react with various types of kinases for 15 minutes, resulting in the final concentration of 10 μM, 1 μM or 0.1 μM. After completion of the reaction, enzyme activity was examined.

[5] = molecular target: Dual specificity tyrosine-phosphorylation-regulated kinase 1A (DYRK1A) (Homo sapiens, UniProt Q13627); test: DYRK1A inhibition, Profiler Pro kit method; assay type: biochemical; conditions: compound 1 μM; read-out: DYRK1A enzyme activity inhibition percentage
Source text: As with casein kinase 1δ, this DYRK1A has been known as a candidate kinase for phosphorylating tau proteins, and also as a kinase for controlling circadian rhythm.

[6] = molecular target: T2, human recombinant casein kinase 1δ (Homo sapiens, UniProt P48730); test: Casein kinase 1δ inhibition, Z'-LYTE Ser/Thr 11 Peptide assay; assay type: biochemical; conditions: 0.3 μg/ml compound; for inhibition at 0.3 µg/mL: 20 μM ATP, 3.0 or 1.0 μg/ml enzyme, formula (2) high-purity from Scheme 2, read-out: Casein kinase 1δ inhibition percentage
T2 construct: purchased INVITROGEN PV3665
T2 sequence (P48730 whole entry): as above
Experimental: (§1) The activity of the present compound to inhibit casein kinase 1δ and casein kinase 1ε was measured using human recombinant casein kinase 1δ (INVITROGEN; Cat No. PV3665) or human recombinant casein kinase 1ε (INVITROGEN; Cat No. PV3500) as an enzyme source, and also using Z′-LYTE Ser/Thr 11 Peptide (INVITROGEN; Cat No. PV3671) as a phosphorylation substrate. The composition (final concentration) applied during each inhibitory activity measurement assay is as follows.
Assay for Casein Kinase 1δ
3.0 μg/ml or 1.0 μg/ml casein kinase 1δ, 0.3 μg/ml the present compound, 1.0 μM Peptide, 20 μM ATP, 50 mM HEPES (pH 7.4), 10 mM MgCl2, 0.01% Brij-35, and 0.5% DMSO
(§2) The present compound was previously allowed to react with the enzyme at room temperature, for 15 minutes. Two hours later, the remaining phosphorylation activity was measured using Z′-LYTE Kinase Assay Kit-Ser/Thr 11 Peptide (INVITROGEN; Cat No. PV3670).
(§3) The inhibition percentage of the present compound against the phosphotylation activity of each of casein kinase 1δ and casein kinase 1ε to which the present compound had not been added, was calculated.

[7] = molecular target: T3, human recombinant casein kinase 1ε (Homo sapiens, UniProt P49674); test: Casein kinase 1ε inhibition, Z'-LYTE Ser/Thr 11 Peptide assay; assay type: biochemical; conditions: 0.3 μg/ml compound; for inhibition at 0.3 µg/mL: 20 μM ATP, 0.5 μg/ml enzyme, formula (2) high-purity from Scheme 2, read-out: Casein kinase1ε inhibition percentage
T3 construct: purchased INVITROGEN PV3500
T3 sequence (P49674 whole entry): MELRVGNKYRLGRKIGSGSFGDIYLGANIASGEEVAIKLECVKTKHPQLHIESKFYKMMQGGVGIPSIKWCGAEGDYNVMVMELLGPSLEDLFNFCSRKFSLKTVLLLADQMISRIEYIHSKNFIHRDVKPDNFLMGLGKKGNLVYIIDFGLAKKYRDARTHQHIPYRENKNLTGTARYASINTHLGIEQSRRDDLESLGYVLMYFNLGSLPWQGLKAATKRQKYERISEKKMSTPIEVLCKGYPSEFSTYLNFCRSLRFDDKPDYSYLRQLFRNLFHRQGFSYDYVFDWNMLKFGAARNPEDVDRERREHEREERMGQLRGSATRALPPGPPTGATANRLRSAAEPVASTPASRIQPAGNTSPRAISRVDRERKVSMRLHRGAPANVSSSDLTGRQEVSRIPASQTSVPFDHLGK
Experimental: as §1
Assay for Casein Kinase 1ε
0.5 μg/ml casein kinase 1ε, 0.3 μg/ml the present compound, 1.0 μM Peptide, 20 μM ATP, 50 mM HEPES (pH 7.4), 10 mM MgCl2, 0.01% Brij-35, and 0.5% DMSO
as §2, §3

[8] = system: pancreatic cancer cell line transplanted into the subcutis of a mouse; conditions: subcutaneous transplant; cited from earlier work
[9] = system: N2A cells (N2A-APP695 cells); conditions: N2A-APP695 cells excessively expressing constitutively active casein kinase 1ε; cited from earlier work
[10] = system: human pancreatic cancer cell line; conditions: added in vitro; cited from earlier work
[11] = system: rats; conditions: subcutaneous administration; cited from earlier work
[12] = molecular target: p38α (Homo sapiens, UniProt Q16539); conditions: cited from earlier work
Sequence of p38α (Q16539 whole entry): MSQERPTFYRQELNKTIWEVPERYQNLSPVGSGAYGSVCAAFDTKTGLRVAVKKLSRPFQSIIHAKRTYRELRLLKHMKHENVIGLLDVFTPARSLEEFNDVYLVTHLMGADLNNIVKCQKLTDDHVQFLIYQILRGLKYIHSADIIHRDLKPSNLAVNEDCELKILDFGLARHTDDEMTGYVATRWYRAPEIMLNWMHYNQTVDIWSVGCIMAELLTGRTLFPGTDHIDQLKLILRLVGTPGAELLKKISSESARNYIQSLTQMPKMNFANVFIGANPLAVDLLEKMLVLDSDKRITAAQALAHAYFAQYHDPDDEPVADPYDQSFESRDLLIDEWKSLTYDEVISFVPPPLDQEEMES

[13] = low-purity compound obtained by Scheme 1

Structure (SMILES)	momentum [1]	non-REM sleep amount [1]	inhibition of phosphorylation of tau by casein kinase 1δ (phosphorylation rate of tau) [2]	final concentration dissolved in the DMSO solution ([3]; easily dissolved) [mM]	inhibitory activity against various types of kinases causing concerns about side effects [4]	inhibition at 1 µM [5] [%]	inhibition at 0.3 µg/mL [6] [%]	inhibition at 0.3 µg/mL [7] [%]	also measured
COc1ccc(/C=C2\N=C(c3ccc(Cl)s3)OC2=O)cn1 [Formula (11), 4-((6-Methoxy-3-pyridinyl)methylene)-2-(5-chloro-2-thienyl)-5(4H)-oxazolone]	statistically significant reduction	increase	significant inhibition	10	did not have significant inhibitory activity	78	77.9	94.8	medicinal effect compared with the compound without halogen on the thiophene ring ([1]; same test): significantly higher
COc1cc(OC)c(C=C2C(O)=Nc3ccccc32)c(OC)c1 [IC261]									growth of tumor cells [8]: significant effect of suppressing the growth of tumor cells; amounts of Aβ40 and Aβ42 [9]: decreased; cell growth [10]: suppression of the cell growth
COc1ccc(/C=C2\N=C(c3ccc(Br)s3)OC2=O)cn1 [Formula (14)]				20	did not have significant inhibitory activity	85	77.8	95	
COc1ccc(C=C2N=C(c3cccs3)OC2=O)cn1 [4-((6-methoxy-3-pyridinyl)methylene)-2-(2-thienyl)-5(4H)-oxazolone, reference compound]	significant reduction	increase							final concentration dissolved in the DMSO solution ([3]; dissolved by being intensively stirred): 10 mM
Nc1nccc(-c2c(-c3ccc(F)cc3)ncn2C2CCCCC2)n1 [PF-670462, 4-[3-cyclohexyl-5-(4-fluoro-phenyl)-3H-imidazol-4-yl]-pyrimidin-2-ylamine]									phase of circadian rhythm [11]: significantly delayed; inhibitory action against p38α [12]: exhibit inhibitory action
COc1ccc(/C=C2\N=C(c3ccc(F)s3)OC2=O)cn1 [Formula (2), 4-((6-Methoxy-3-pyridinyl)methylene)-2-(5-fluoro-2-thienyl)-5(4H)-oxazolone]			significant inhibition	35	did not have significant inhibitory activity	65	83	97.7	inhibitory activity against casein kinase 1δ [6, 13]: significant inhibitory activity; inhibitory activity against casein kinase 1ε [7, 13]: significant inhibitory activity

— patent US8710231B2, “Inhibitor of casein kinase 1delta and casein kinase 1E” (Pharmadesign, Inc., priority 2010, dated 2014)
